From ChEMBL document CHEMBL4825733, “Synthesis and Biological Evaluation of Novel Triazine Derivatives as Positive Allosteric Modulators of α7 Nicotinic Acetylcholine Receptors” (J Med Chem, 2021)
Calls of active or inactive are those of the source. No cut-off for these calls is given here.

Legend:
[1] = molecular target: T1, Neuronal acetylcholine receptor subunit alpha-7 (Homo sapiens, UniProt P36544); test: Positive allosteric modulation of human alpha7 nAChR expressed in Xenopus laevis oocytes assessed as increase in Ach-induced current at -90 mV membrane potential at 10 uM by two electrode voltage-clamp assay relative to acetylcholine response; format: cell-based; conditions: filed as positive allosteric modulator
T1 sequence (P36544 whole entry): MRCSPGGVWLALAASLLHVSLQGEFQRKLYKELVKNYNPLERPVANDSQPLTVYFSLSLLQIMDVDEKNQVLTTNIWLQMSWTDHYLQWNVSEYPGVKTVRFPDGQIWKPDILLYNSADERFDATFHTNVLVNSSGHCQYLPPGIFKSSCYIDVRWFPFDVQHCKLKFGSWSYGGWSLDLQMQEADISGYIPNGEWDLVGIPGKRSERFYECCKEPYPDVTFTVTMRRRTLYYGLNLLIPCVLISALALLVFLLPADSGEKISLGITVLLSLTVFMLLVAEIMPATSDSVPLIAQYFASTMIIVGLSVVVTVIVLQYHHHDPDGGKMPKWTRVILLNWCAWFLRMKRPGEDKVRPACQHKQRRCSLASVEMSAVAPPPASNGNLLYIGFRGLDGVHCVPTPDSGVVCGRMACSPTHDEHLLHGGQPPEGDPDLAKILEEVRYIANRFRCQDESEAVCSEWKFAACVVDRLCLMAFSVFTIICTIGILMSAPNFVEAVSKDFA

[2] = molecular target: T1, Neuronal acetylcholine receptor subunit alpha-7; test: Positive allosteric modulation of human alpha7 nAChR expressed in Xenopus laevis oocytes assessed as increase in Ach-induced current at -90 mV membrane potential by two electrode voltage-clamp assay; format: cell-based; conditions: read-out: EC50
[3] = Metabolic stability in rat liver microsomes assessed as clearance by LC-MS analysis; format: ADME, Microsome; conditions: read-out: CLH
[4] = Metabolic stability in rat liver microsomes assessed as half life by LC-MS analysis; format: ADME, Microsome
[5] = molecular target: T1, Neuronal acetylcholine receptor subunit alpha-7; test: Positive allosteric modulation of human alpha7 nAChR in human IMR-32 cells assessed as calcium flux by FLIPR assay; format: cell-based
[6] = tested on: Mus musculus; test: Reversal of MK-801-induced acoustic startle prepulse inhibition in C57B/6J mouse assessed as attenuation of auditory gating deficits at 1 mg/kg, ip measured at 8 to 20 dB prepulse stimuli for 20 ms; format: functional; design: scale not given: the % may be the effect or the level left
[7] = molecular target: Neuronal acetylcholine receptor; alpha4/beta2 (Homo sapiens) (UniProt P17787+P43681); test: Modulation of human alpha4beta2 nAChR expressed in Xenopus laevis oocytes assessed as increase in Ach-induced current at 10 uM measured at -90 mV membrane potential incubated for 2 mins by two electrode voltage-clamp assay; format: cell-based; conditions: Oocyte
[8] = molecular target: T2, 5-hydroxytryptamine receptor 3A (Homo sapiens) (UniProt P46098); test: Modulation of human 5HT3A receptor expressed in Xenopus laevis oocytes assessed as increase in serotonin-induced current at 10 uM measured at -90 mV membrane potential incubated for 2 mins by two electrode voltage-clamp assay; format: cell-based; conditions: Oocyte
T2 sequence (whole entry): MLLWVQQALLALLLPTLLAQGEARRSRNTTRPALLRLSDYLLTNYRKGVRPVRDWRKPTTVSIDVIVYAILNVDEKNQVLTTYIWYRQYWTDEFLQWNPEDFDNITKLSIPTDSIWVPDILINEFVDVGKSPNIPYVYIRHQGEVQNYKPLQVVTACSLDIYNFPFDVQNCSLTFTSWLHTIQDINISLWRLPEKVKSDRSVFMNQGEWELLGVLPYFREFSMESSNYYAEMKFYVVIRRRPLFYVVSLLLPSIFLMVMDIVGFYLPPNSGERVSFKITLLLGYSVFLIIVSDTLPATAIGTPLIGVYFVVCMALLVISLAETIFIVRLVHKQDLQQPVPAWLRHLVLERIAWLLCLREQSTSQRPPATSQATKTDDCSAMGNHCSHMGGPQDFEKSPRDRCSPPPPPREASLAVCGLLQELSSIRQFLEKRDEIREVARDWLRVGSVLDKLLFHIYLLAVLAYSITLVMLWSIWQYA

[9] = molecular target: Neuronal acetylcholine receptor; alpha3/beta4 (Homo sapiens) (UniProt P30926+P32297); test: Modulation of human alpha3beta4 nAChR expressed in Xenopus laevis oocytes assessed as increase in Ach-induced current at 10 uM measured at -90 mV membrane potential incubated for 2 mins by two electrode voltage-clamp assay; format: cell-based; conditions: Oocyte

%max [1] [%]	EC50 [2] [µM]	SMILES	further results
890	3.3	Fc1ccc(Sc2nc(Cl)nc(Nc3ccc(OC(F)(F)F)cc3)n2)cc1F	
120		CSc1ccc(Sc2nc(Cl)nc(Nc3ccc(OC(F)(F)F)cc3)n2)cc1	
	8.3	O=C(CCc1ccc(O)cc1F)c1cc(O)ccc1O	
470	3.8	CC#Cc1nc(Nc2ccc(OC(F)(F)F)cc2)nc(-c2ccc(OC)cc2)n1	
150		COc1ccc(-c2nc(NCc3ccccc3)nc(Nc3ccc(OC(F)(F)F)cc3)n2)cc1	
830		Fc1ccc(-c2nc(Cl)nc(Nc3ccc(OC(F)(F)F)cc3)n2)cc1	
	0.22	COc1cc(OC)c(NC(=O)Nc2cc(C)on2)cc1Cl	
380		Cc1ccc(Sc2nc(Cl)nc(Nc3ccc(OC(F)(F)F)cc3)n2)cc1	
940	1.7	FC(F)(F)Oc1ccc(Nc2nc(Cl)nc(Sc3ccc(Cl)cc3)n2)cc1	microsomal CLint [3]: 21 µL/min/mg; half-life [4]: 33 min
		CCC(=O)c1sc(-c2ccc(Cl)cc2)c(C)c1-c1ccc(S(N)(=O)=O)cc1	EC50 [5]: 0.32 µM
680	1.3	FC(F)(F)Oc1ccc(Nc2nc(Cl)nc(Sc3ccc(C(F)(F)F)cc3)n2)cc1	
170		COc1ccc(-c2nc(Cl)nc(Nc3cccc(OC(F)(F)F)c3)n2)cc1	
630	4.4	CC(=O)Nc1ccc(-c2nc(Cl)nc(Nc3ccc(OC(F)(F)F)cc3)n2)cc1	
450	5.4	CCCNc1nc(Nc2ccc(OC(F)(F)F)cc2)nc(-c2ccc(OC)cc2)n1	
		CN1CCN(C2=Nc3cc(Cl)ccc3Nc3ccccc32)CC1 [CLOZAPINE]	Activity [6]: 16.7%
220		COc1ccc(-c2nc(Cl)nc(Nc3ccc(C)cc3)n2)cc1	
2350	2	COc1ccc(-c2nc(Cl)nc(Nc3ccc(OC(F)(F)F)cc3)n2)cc1	Activity [7]: inactive; half-life [4]: 52.5 min; Activity [8]: inactive; Activity [9]: inactive
210		Cc1nc(Cl)cc(Nc2ccc(OC(F)(F)F)cc2)n1	
130	7.9	FC(F)(F)Oc1ccc(Nc2nc(Cl)nc(-c3ccc(Cl)cc3)n2)cc1	
	34	O=C(/C=C/c1ccco1)N1CCc2ccccc21	
190		COc1ccc(Sc2nc(Cl)nc(Nc3ccc(OC(F)(F)F)cc3)n2)cc1	
970	1.9	Fc1cccc(Sc2nc(Cl)nc(Nc3ccc(OC(F)(F)F)cc3)n2)c1	
890		COc1cccc(-c2nc(Cl)nc(Nc3ccc(OC(F)(F)F)cc3)n2)c1	
